Reference: a melting point compilation (Tetko et al.; mined from patent text by program, amines drawn as free bases though some values may be those of a salt)

SMILES	melting point
CCOC(=O)C1(C(=O)OCC)CCC2(CC1)c1cc(OC)c(OC)cc1CCN2C(=O)OCc1ccccc1	101 to 102 °C
Cc1c(-c2nnn[nH]2)oc2c(c1=O)CSc1ccccc1-2	247 to 248 °C
NS(=O)(=O)OCCOc1ccc(OCc2ccccc2)cc1	125 to 128 °C
C#CCOc1nsc(-c2ccccc2)n1	66.9 °C
CCOC(=O)CCCN1CCN(C2=Nc3ccccc3Oc3ccc(Cl)cc32)CC1	86 to 87 °C
CCCC(=O)c1ccc(OCCCC(=O)O)c(Cl)c1Cl	111 to 113 °C
COC(=O)Cn1c(C(=O)OCc2ccccc2)cc2cc(C)cc(C)c21	91 to 93 °C
Cc1ccc(CN(O)C(N)=O)o1	105 °C
CS(=O)(=O)c1ccccc1C1CCCC2(C1)C(=O)Nc1ccccc12 (stereo unspecified)	190 to 191 °C
O=C(CCc1ccccc1)C(Cc1ccccc1)(Cc1ccccc1)C(=O)CCc1ccccc1	84 to 86 °C
CCOCc1nc2c(N)nc3ccccc3c2n1CCOCCNS(C)(=O)=O	152 to 155 °C
Cc1cc(C(Cc2ccc(CCCc3nc(-c4ccccc4)oc3C)cc2)C(=O)O)no1 (stereo unspecified)	75 to 80 °C
CC(C)(C=O)C(O)(COc1cccc2ccccc12)Cn1ccnc1 (stereo unspecified)	147 °C
O=C1c2ccccc2CS(=O)(=O)N1CC(O)CN1CCOCC1 (stereo unspecified)	175 to 177 °C
Cc1c(-c2ccccc2)sc2nc(NCCO)[nH]c(=O)c12	227 to 229 °C
Cc1ccc(C2Sc3ccccc3NC(=O)C2CO)cc1 (stereo unspecified)	229 °C
CCOC(=O)c1cnc2c(c(C)nn2-c2ccccn2)c1Cl	121 to 123 °C
CCOC(=O)c1[nH]c2ccc(Cl)cc2c1N	126 to 127 °C
OC(c1ccccc1)(c1ccc(Oc2ccccc2)cc1)c1ccccn1 (stereo unspecified)	114 °C
Cc1cccc(C(=O)NC(C)C)c1NC(=O)c1cc(C(F)(F)F)nn1-c1ncccc1C(F)(F)F	227 to 230 °C
CC(CN1CCOCC1)C(=O)c1ccc(C(C)(C)C)cc1 (stereo unspecified)	71 to 73 °C
CC(C)(O)[C@@H](N)c1ccc2ccccc2c1	77 to 78 °C
Cc1oc(-c2ccccc2)nc1COc1ccc(CSc2nc(CCC(=O)O)n[nH]2)cc1	170 to 171 °C
CCOc1ccc2c(c1)n(C1CCCCC1)c(=O)n2S(=O)(=O)c1ccc(C(=O)NC(C)(C)CN(C)C)cc1OC	161 °C

SMILES	melting point
O=c1ccc(-c2c(-c3ccccc3)nn3ccccc23)nn1Cc1nccs1	130 to 132 °C
COc1cc2c(c(Cl)c1Cl)C(=O)C(CCCCl)C2 (stereo unspecified)	130 to 132 °C
O=C1Cc2ccc(C3CCCC3)cc2O1	42 to 43 °C
CC=C1CCC2C3CCC4CC(O)CCC4(C)C3C(N(C)C)CC12C (stereo unspecified)	59 to 61 °C
CCCNC(=O)C(C)Cc1ccc2c(c1)c(Cc1ccc(C(=O)NS(=O)(=O)c3ccccc3C)cc1OC)cn2CCC(=O)N(C)C (stereo unspecified)	120 to 132 °C
NC(=O)Cc1ccc2[nH]ccc2c1	146 to 147 °C
Cc1cc(Cl)cc(OC2=NS(=O)(=O)CS2)c1	151 °C
COc1ccc(C(C)C)cc1-c1cc(-c2nnnn2C2CCN(C(=O)CC(C)C)CC2)c(O)cc1O	220 to 224 °C
COC(=O)c1c(C)cc(O)c(Cl)c1O	122 to 125 °C
CC(C)C(S)C(=O)NC1(C(=O)NC(Cc2ccc(-c3ccoc3)nc2)C(=O)O)CCCC1 (stereo unspecified)	52 to 55 °C
Cc1nc2ccc(CCc3ccccc3)cn2c1CC#N	139 to 141 °C
CCOC(=O)C(C(=O)Nc1nccs1)C(=O)c1cccc(C(F)(F)F)c1NC(=O)C(Cl)C(C)(C)C (stereo unspecified)	180 °C
CN1CC(=O)c2c(c3ccccc3n2C)S1(=O)=O	180 °C
Cc1nc(N)nc(N)c1-c1ccc(F)cc1F	291 to 296 °C
CC1(c2cccs2)Cc2cc(O)c(Cl)c(Cl)c2C1=O (stereo unspecified)	224 to 226 °C
O=C(CCCCl)c1cc2c(s1)SCCNC2=O	124 to 125 °C
COc1ccc2c(Cc3c(Cl)cncc3Cl)nnc(N3CCOCC3)c2c1	179 to 180 °C
CC1=C(C(=O)OCc2ccccc2)C(c2ccccc2Cl)c2c[nH]nc2N1 (stereo unspecified)	234 °C
O=C(O)c1ccc(NCC=C(c2ccc(Cl)cc2)c2ccc(Cl)cc2)cc1	231 to 235 °C
FC(F)(F)c1cccc(-c2nnc(Cl)cc2Cl)c1	80 to 81.5 °C
O=C(O)CCc1ccc(OCCCc2cc(-c3ccc(C(F)(F)F)cc3)no2)cc1	174 to 175 °C
CCOc1ccc(C(=O)c2c(N)sc3c2CCN(C(=O)OCc2ccccc2)C3)cc1	197 to 198 °C
O=C1CN(N=Cc2ncc(-c3ccc([N+](=O)[O-])cc3)o2)C(=O)N1	314 to 316 °C
O=Cc1cc(-c2ccc(O)cc2)c2occc2c1	154 to 155 °C

SMILES	melting point
CC1(c2ccccc2)OCC(=O)N(CCCN2C(=O)c3ccccc3C2=O)c2ccc(Cl)cc21 (stereo unspecified)	151 to 153 °C
CC(CN1C(C)CCC1C)N1c2ccccc2Sc2ccc(C#N)cc21 (mixture of isomers)	105 °C
CN(c1ccc(Cl)c2cc(-c3ncc(CO)s3)[nH]c12)S(=O)(=O)c1cccs1	225 to 226 °C
CCOc1ccc(-c2ccc3c(c2)C=C(C(=O)Nc2ccc(CN(C)C4CCOCC4)cc2)CCO3)cc1	174 to 176 °C
N#Cc1ccc(OCCCCC(=O)O)cc1	160 °C
COc1ccc(S(=O)(=O)N(CC(N)=O)c2ccc(Cl)cc2Cc2ccccc2Cl)cc1	150 °C
Cc1cc(O)ccc1-c1c(C=O)sc(-c2ccc(O)cc2)c1C	244 to 247 °C
CN1C(=O)CC[C@]2(C)c3ccc(-c4ccc([N+](=O)[O-])cn4)cc3CC[C@@H]12	70 to 80 °C
O=c1[nH]c2cc(O)ccc2c2oc3ccccc3c12	> 300 °C
CN(C)c1noc(-c2cc(C(C)(C)C)c(O)c(C(C)(C)C)c2)n1	135 to 138 °C
COc1ccc(C)cc1NC(=O)Nc1ccc(C2=CCN(C(=O)Nc3ccc(OCC(O)CO)cc3C(F)(F)F)CC2)cc1 (stereo unspecified)	135 to 137 °C
COc1c(C)c(Cl)c(C)c(Cl)c1CNC(=O)CCl	205 to 206 °C
COCCOc1cc(Cl)cnc1[N+](=O)[O-]	71.5 to 72.5 °C
CON=C1CN(c2nc3c(cc2F)c(=O)c(C(=O)O)cn3C2CC2)CC12CN(C)C2	225 to 227 °C
COC(=O)C(Cc1ccc(OS(=O)(=O)C(F)(F)F)c(OS(=O)(=O)C(F)(F)F)c1)NC(=O)OC(C)(C)C (stereo unspecified)	80 to 82 °C
Cn1c(C(F)(F)F)cc(=O)n(-c2c(O)cc(F)cc2F)c1=O	195 to 196 °C
O=[N+]([O-])c1cccc([N+](=O)[O-])c1F	50 °C
O=C1CN(NC(=O)NC(C(=O)O)c2ccccc2)C(=O)N1 (stereo unspecified)	139 to 143 °C
CC(C)C[C@H](NC(=O)OC(C)(C)C)[C@@H](O)CC(=O)NN1CCN(c2cccc(C(F)(F)F)c2)CC1	107 to 109 °C
Cc1cc(Cl)n2nc(S(=O)(=O)Nc3c(Cl)cccc3Cl)nc2c1	257 to 258 °C
CCCCCCCCCCC1CN(C)C(=O)N(O)C1 (stereo unspecified)	63 to 64.5 °C
Cc1cc(CNC(=O)c2nc3n(c(=O)c2OCc2ccccc2)CCN3c2ccccc2)ccc1F	147 °C
CCOC(=O)c1c(Cl)nc2ccsc2c1Cl	73 °C
